Laboratory results from patent US20240344059A1, “Gene Editing of Regulatory Elements” (Vertex Pharmaceuticals Incorporated, priority 2021, published 2024).

Tested on: CUG foci in myonuclei of DM1 patient myotubes
Test: FISH staining of CUG RNA foci (SaCas9/SluCas9 sgRNA pairs)
Assay type: cell-based, human
Design: average Foci reduction: concentration or dose not given beside the values
Conditions: myonuclei of DM1 patient myotubes
Protocol: Primary myotubes were fixed for 15 min with 4% paraformaldehyde (PFA) and washed five times with 1×PBS for 5 min each at room temperature. Before staining, cells were permeabilized with 0.5% triton X-100 in 1×PBS for 5 min at room temperature, and then washed with 30% formamide and 2× saline-sodium citrate (SSC) mixture for 10 min at room temperature. Cells were then stained with 1 ng/μL of Cy3-PNA(CAG)5 probe (PNA Bio, F5001) diluted in 30% formamide, 2×SSC, 2 μg/mL BSA, 66 μg/mL yeast tRNA, and 2 mM vanadyl complex for 15 min at 80° C. Following probe staining, cells were then washed in 30% formamide and 2×SSC mixture for 30 min at 60° C., then washed in 30% formamide and 2×SSC mixture for 30 min at 55° C., and then washed in 1×SSC solution for 10 min at room temperature, and finally washed in 1×PBS for 10 min at room temperature. For staining of myotube nuclei, cells were stained with anti-Myogenin antibody diluted in 1% bovine serum albumin (BSA) for overnight at 4° C. and washed twice with 1×PBS for 5 min each at room temperature. Cells were then incubated with the secondary antibody goat anti-rabbit Alexa 488 (Thermo Fisher, A32731) diluted in 1% BSA for 1 hr at room temperature and washed twice with 1×PBS for 5 min each at room temperature. Next, cells were stained with Hoechst solution (Thermo Fisher, H3569) at 0.1 mg/ml for 5 min and washed once with 1×PBS for 5 min. PBS was aspirated and fresh 100 μl of fresh PBS was added to each well. High-throughput acquisition of images was completed with the ImageXpress Micro Confocal High-Content Imaging System (Molecular Devices). RNA foci quantifications were accomplished with a customized analysis module of the MetaXpress program (Molecular Devices).
Each sgRNA pair consisting of one upstream sgRNA and one downstream sgRNA were assembled with recombinant SaCas9 or SluCas9 protein, respectively, into a ribonucleoprotein (RNP) complex and delivered into primary DM1 patient myoblasts with Amaxa 4D-Nucleofector. Post nucleofection, myoblasts were divided into 6 groups and were treated with DMSO (Groups 1-3) or 3 μM of DNA-dependent Protein Kinase Inhibitor (DNA-PKi) Compound 6 (Group 4-6) for 48 hrs. DNA-PKi was used to boost the excision efficiency and to better understand the contribution of E-boxes to DMPK transcription. 72 hrs post nucleofection, myoblasts from Groups 1 and 4 were collected for genomic DNA isolation, whereas the rest of the groups were subjected to myogenic differentiation to form myotubes. The myotubes were collected on Day 15 post nucleofection (Day 12 post differentiation) for mRNA isolation (Group 2 and 5) and RNA foci staining (Groups 3 and 6) (FIG. 9).

| Substance | average Foci reduction [%] |
| --- | --- |
| SaU1DI: SaCas9 sgRNA pair SaU1 + SaD1, SEQ ID NOs 1300/1305, delivered as RNP (guide 1 ATGGCCTCTCTGCACCCCGCCT; guide 2 CTGGTTCTCCCACAGGGCCCGC; delivered as SaCas9 RNP, further chemistry not given here) | ~50 |
| SaU3D1: SaCas9 sgRNA pair SaU3 + SaD1, SEQ ID NOs 1302/1305, delivered as RNP (guide 1 TCTCTGCACCCCGCCTCAGGGT; guide 2 CTGGTTCTCCCACAGGGCCCGC; delivered as SaCas9 RNP, further chemistry not given here) | ~50 |
| SaU3D3: SaCas9 sgRNA pair SaU3 + SaD3, SEQ ID NOs 1302/1307, delivered as RNP (guide 1 TCTCTGCACCCCGCCTCAGGGT; guide 2 CTGCGATCCAGGAGGGACAACT; delivered as SaCas9 RNP, further chemistry not given here) | ~50 |
| saU5D1: SaCas9 sgRNA pair SaU5 + SaD1, SEQ ID NOs 1304/1305, delivered as RNP (guide 1 CCATAGAGCCCACTTTTGGGGG; guide 2 CTGGTTCTCCCACAGGGCCCGC; delivered as SaCas9 RNP, further chemistry not given here) | ~50 |
| sluU3D2: SluCas9 sgRNA pair SluU3 + SluD2, delivered as RNP (guide 1 TCTCTGCACCCCGCCTCAGGGT; guide 2 GAAGAACCCAAAGTTGTCCCTC; delivered as SaCas9 RNP, further chemistry not given here) | ~50 |
| sluU3D3: SluCas9 sgRNA pair SluU3 + SluD3, delivered as RNP (guide 1 TCTCTGCACCCCGCCTCAGGGT; guide 2 CTGCGATCCAGGAGGGACAACT; delivered as SaCas9 RNP, further chemistry not given here) | ~50 |
| sluU64D34: control CTG repeat excision SluCas9 sgRNA pair, SEQ ID NOs 1497 and 1498 (guide 1 GGGGCTCGAAGGGTCCTTGTAG; guide 2 CGCGCCAGACGCTCCCCAGAGC; listed as DNA, chemistry not given here) [reference compound] | ~50 |
